Active and inactive are the calls of the source. The calls are words filed in the database; no cut-off is given here.
Key:
[1] = target: T1, Cyclin-G-associated kinase (Homo sapiens, UniProt O14976); assay: Binding affinity to wild-type human partial length GAK (G13 to Y338 residues) expressed in bacterial expression system by Kinomescan method
T1 sequence (O14976 whole entry): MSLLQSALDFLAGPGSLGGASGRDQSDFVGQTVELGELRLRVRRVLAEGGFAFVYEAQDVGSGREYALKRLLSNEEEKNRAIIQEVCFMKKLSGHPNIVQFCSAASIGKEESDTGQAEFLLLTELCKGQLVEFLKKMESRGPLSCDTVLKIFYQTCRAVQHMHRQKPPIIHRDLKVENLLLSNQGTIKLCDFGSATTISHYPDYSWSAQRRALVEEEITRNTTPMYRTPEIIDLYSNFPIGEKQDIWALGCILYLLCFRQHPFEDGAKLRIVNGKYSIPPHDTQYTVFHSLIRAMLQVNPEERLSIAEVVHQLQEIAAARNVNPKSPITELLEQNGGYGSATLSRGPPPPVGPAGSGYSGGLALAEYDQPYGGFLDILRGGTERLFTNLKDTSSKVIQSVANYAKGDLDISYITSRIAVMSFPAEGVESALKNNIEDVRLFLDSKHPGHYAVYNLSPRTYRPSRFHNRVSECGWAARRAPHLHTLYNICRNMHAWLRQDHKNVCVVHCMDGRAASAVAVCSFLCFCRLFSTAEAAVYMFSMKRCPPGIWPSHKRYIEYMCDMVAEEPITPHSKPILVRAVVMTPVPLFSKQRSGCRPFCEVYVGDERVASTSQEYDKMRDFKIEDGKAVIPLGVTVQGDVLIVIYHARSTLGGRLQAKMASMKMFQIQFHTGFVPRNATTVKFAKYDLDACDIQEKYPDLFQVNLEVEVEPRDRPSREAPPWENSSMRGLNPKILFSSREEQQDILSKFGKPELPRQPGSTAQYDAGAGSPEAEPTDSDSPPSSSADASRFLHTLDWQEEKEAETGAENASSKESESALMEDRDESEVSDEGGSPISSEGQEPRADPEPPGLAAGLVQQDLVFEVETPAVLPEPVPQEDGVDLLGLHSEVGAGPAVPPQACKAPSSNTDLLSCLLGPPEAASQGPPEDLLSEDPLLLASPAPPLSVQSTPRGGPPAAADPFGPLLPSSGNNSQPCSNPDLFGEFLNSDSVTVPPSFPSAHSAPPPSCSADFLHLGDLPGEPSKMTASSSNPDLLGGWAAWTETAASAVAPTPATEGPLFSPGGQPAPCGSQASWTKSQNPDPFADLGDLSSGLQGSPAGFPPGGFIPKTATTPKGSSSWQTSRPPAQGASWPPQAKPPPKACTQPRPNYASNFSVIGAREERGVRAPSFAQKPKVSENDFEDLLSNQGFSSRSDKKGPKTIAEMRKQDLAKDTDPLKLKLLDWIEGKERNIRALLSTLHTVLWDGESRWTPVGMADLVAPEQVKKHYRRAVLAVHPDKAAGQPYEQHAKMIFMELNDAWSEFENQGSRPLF

cells [2] = type: functional, cell-based; conditions: Homo sapiens, UCH2, 72 h
Description: Antiproliferative activity against human UCH2 cells measured after 72 hrs by alamar blue assay

cells [3] = type: ADME, cell-based; conditions: Homo sapiens, WS1, 72 h
Description: Cytotoxicity against human WS1 cells measured after 72 hrs by alamar blue assay

[4] = target: Receptor-interacting serine/threonine-protein kinase 2 (Homo sapiens) (UniProt O43353); assay: Binding affinity to RIPK2 in human SUM159 cell lysates by multiplexed inhibitor bead profiling-based LC-MS/MS analysis; type: subcellular; conditions: Lysate
[5] = target: Epidermal growth factor receptor (Homo sapiens, UniProt P00533); type: cell-based;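 further: human A431 cells pretreated 90 min, then EGF stimulated, sandwich ELISA measured decrease in EGF-induced receptor autophosphorylation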
Description: Inhibition of EGFR in human A431 cells assessed as reduction in EGF-stimulated EGFR autophosphorylation preincuabted for 90 mins followed by EGF-stimulation by sandwich-ELISA

[6] = target: T1, Cyclin-G-associated kinase; assay: Inhibition of tracer 5 binding to human N-terminal nano luciferase-fused GAK expressed in HEK293 cells measured after 2 hrs by nanoBRET assay; type: cell-based; conditions: hek293
[7] = target: T2, Cyclin-G-associated kinase (Homo sapiens) (UniProt O14976); assay: Binding affinity to GAK in human SUM159 cell lysates by multiplexed inhibitor bead profiling-based LC-MS/MS analysis; type: subcellular; conditions: Lysate
T2 sequence (whole entry): T1 sequence (O14976 whole entry)

Epidermal growth factor receptor, sequence (P00533 whole entry, the tested form may be a part): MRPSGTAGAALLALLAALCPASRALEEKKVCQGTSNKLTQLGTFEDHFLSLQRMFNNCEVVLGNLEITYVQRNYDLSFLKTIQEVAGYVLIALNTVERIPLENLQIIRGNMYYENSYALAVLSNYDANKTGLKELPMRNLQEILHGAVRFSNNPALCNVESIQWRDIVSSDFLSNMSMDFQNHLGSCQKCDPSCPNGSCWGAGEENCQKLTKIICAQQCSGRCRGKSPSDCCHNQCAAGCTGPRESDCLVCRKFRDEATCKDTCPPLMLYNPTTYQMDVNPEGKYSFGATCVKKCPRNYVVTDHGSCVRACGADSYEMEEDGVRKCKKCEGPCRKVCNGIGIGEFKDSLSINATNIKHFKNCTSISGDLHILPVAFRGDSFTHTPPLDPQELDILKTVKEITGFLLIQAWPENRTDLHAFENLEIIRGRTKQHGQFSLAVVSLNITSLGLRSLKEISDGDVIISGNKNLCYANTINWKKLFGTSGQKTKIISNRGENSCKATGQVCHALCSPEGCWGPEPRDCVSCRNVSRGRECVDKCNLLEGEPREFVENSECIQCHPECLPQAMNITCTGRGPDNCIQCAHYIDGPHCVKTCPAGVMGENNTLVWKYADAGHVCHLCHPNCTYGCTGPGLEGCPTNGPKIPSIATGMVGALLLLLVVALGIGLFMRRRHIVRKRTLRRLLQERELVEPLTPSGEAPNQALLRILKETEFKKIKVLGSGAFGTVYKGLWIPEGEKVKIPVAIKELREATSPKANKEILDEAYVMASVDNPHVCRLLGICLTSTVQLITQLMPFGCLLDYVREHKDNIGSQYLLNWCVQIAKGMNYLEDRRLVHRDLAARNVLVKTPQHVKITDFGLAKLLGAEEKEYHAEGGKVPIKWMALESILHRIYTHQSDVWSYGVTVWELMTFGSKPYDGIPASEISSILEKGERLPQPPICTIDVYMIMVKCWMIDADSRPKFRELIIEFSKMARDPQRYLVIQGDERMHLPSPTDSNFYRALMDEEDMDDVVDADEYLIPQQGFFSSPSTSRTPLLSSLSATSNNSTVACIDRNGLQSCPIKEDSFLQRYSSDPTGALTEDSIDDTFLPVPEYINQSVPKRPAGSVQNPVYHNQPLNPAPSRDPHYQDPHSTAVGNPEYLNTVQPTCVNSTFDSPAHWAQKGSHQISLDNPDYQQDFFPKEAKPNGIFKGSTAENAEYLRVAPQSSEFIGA
Receptor-interacting serine/threonine-protein kinase 2 (Homo sapiens), sequence (O43353 whole entry): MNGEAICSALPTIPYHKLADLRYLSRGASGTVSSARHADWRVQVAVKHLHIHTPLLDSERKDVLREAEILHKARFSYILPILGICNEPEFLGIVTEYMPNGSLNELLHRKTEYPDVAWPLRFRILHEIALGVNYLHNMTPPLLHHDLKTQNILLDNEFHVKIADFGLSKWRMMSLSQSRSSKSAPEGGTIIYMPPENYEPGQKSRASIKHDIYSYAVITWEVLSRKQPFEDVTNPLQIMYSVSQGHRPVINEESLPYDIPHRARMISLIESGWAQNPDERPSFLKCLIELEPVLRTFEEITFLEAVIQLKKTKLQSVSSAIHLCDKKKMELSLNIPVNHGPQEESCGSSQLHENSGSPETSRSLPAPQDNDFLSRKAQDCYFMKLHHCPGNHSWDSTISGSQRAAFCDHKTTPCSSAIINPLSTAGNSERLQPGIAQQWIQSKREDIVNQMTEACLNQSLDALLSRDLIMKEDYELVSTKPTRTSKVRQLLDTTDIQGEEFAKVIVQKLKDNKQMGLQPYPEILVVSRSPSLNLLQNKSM

- Kd [1]: 7.6 nM
- IC50 (cells [2]): > 50000 nM
- IC50 (cells [3]): 7700 nM
- Activity [4]: Active
- IC50 [5]: 42 nM
- IC50 [6]: 500 nM
- Activity [7]: Active
Compound: C#Cc1cccc(Nc2ccnc3cc(OC)c(OC)cc23)c1

Source: ChEMBL document CHEMBL4393671, “Design of a Cyclin G Associated Kinase (GAK)/Epidermal Growth Factor Receptor (EGFR) Inhibitor Set to Interrogate the Relationship of EGFR and GAK in Chordoma” (J Med Chem, 2019)
